# Several values for one entry are separate records, joined by “and”; a condition that tells them apart may be missing. Identical values can stand only once.
# Legend:
# ERK1/2 = ERK1/2 phosphorylation in HeLa cells (Western blot); assay type: cell-based, human; details: HeLa cells incubated with S1P; anti-active ERK and anti-phosphoTyr183 ERK antibodies
# Description: Panel C: Western Blot analysis of HeLa cells treated with 0.5 μM S1P for 10 minutes. Prior incubation with S1P the cells were incubated for 20 minutes with 10 μM U73122, BAPTA-AM or U0126. Cells were harvested in boiling Laemmli buffer and subjected to Western analyses using anti-active ERK1/2 antibody. Anti-Hsp70 antibody was used as loading control.
# PAM = PAM translocation to the plasma membrane in HeLa cells (immunofluorescence); assay type: cell-based, human
# Description: Panel B: HeLa cells were treated with 10% fetal bovine serum for different times and stained with anti-PAM antibodies to monitor the subcellular localization.
# Panel B: HeLa cells were treated with 0.5 μM S1P for 30 minutes and stained with anti-PAM antibodies to monitor the subcellular localization.
# Panel C: Time dependence of PAM translocation in HeLa cells. Serum-starved HeLa cells were treated with 0.5 μM S1P for different times and stained with anti-PAM antibodies to monitor the subcellular localization.
# Panel D: HeLa cells were treated with 0.5 μM S1P for 20 minutes and stained with anti-PAM antibodies to monitor the subcellular localization. Prior S1P-treatment were the cells incubated for 24 hours with […] pertussis toxin (PTX), for 20 minutes with, 1 μM GF109203X, 10 μM U0126, BAPTA-AM, U73122 or Ro31-223.
# To monitor distribution of PAM in HeLa cells, cells were grown on glass coverslips in DMEM with 10% FBS and 1% penicillin/streptoMycin (Gibco, Karlsruhe, Germany). To visualize translocation of PAM HeLa, cells were serum starved overnight and subsequently treated with 10% serum for 2 hours. Wherever indicated, cells were preincubated for 30 minutes in the presence of different concentrations of inhibitors. The cells were fixed in 4% paraformaldehyde (Sigma, Taufkirchen, Germany) in PBS for 10 minutes and then permeablized in 0.1% Triton X-100 for another 5 minutes. The coverslips were blocked for 1 hour in 3% BSA in PBS and then incubated for 1 hour with anti-PAM antibody (1:50 dilution). This was followed by incubation with FITC-labeled goat anti-rabbit antibody in PBS containing 3% BSA. The cells were then washed with PBS and mounted. For the analysis confocal (BioRad, Hercules, Calif.) and regular flourescence microscopes (Nikon, Duesseldorf, Germany) were used.
# adult rats = assay: Formalin test after intrathecal application of S1P; assay type: in vivo, rat; details: 20 μl of 10 μM S1P intrathecal 15 minutes prior to formalin; 20 to 35 minutes after formalin; versus PBS/DMSO
# Description: FIG. 24: Pain behaviour of adult rats in the formalin assay with and without application of S1P over a period of 60 minutes. 20 μl of 10 μM S1P or 20 μl PBS/DMSO were given to adult rats by intrathecal application 15 minutes prior to formalin injection. After formalin injection, flinches were counted in 5 minute intervals over a time-period of 60 minutes. The mean of six animal experiments+SEM is shown.
# To determine the analgesic effect of S1P, S1P was delivered to the spinal chord by intrathecal application.
# Rats were anesthetized with ketamine (60 mg/kg i.p.) and midazolam (0.5-1 mg/kg i.p.). The skin was incised above the vertebral column from vertebrae Th13 up to L3. Muscle tissue around L2-3 was cleared away. The processus spinosus of L3 was removed and a laminectomy was done at L2. Polyethylene catheters (ID 0.28 mm, OD 0.61 mm) were then inserted into the peridural space so that the tip of the catheter reached Th9-10. […]
# Within 15 min after stopping the infusion the formalin test was performed. […] Flinches were counted in one minute intervals up to 60 min starting right after formalin injection. […]
# 20 μl of 10 μM S1P or 20 μl PBS/DMSO were given to adult rats by intrathecal application 15 minutes prior to the formalin injection. Then, flinches were counted in 5 minute intervals over a period of 60 minutes.
# HeLa cells = assay: Calcium imaging in HeLa cells; assay type: cell-based, human
smiles,measurement,setting,value
"CCCCCCCCCCCCC/C=C/[C@@H](O)[C@@H](N)COP(=O)(O)O [S1P, Sphingosine-1-Phosphate]",ERK1/2 phosphorylation,ERK1/2,detectable
same,PAM translocation among candidate substances for the serum factor,PAM; HeLa cells,induced PAM translocation
same,cells with PAM translocation to the plasma membrane,PAM; HeLa cells treated with 0.1-5 μM S1P,70-90% and 80%
same,time at which PAM appeared at the plasma membrane,"PAM; HeLa cells, 500 nM S1P",10 min
same,time at which PAM started to disappear from the plasma membrane,"PAM; HeLa cells, 500 nM S1P",1 h
same,time of PAM translocation to the plasma membrane,"PAM; HeLa cells, 0.1-5 μM S1P",10 to 30 min
same,"number of nociceptive responses (flinches), phase 2A",adult rats,significant decrease
same,intracellular calcium,HeLa cells,induced a PLC-dependent calcium increase

# Source: patent US7691563B2, “Method for alleviating pain using sphingosine-1-phosphate and related compounds, and assays for identifying such compounds” (Sanofi-Aventis Pharma GmbH, priority 2003, dated 2010)
